# Measurements from patent publication US9724358B2, “Minocycline compounds and methods of use thereof” (Paratek Pharmaceuticals, Inc., priority 2008, dated 2017).
# Tests used:
# [1] = Phase 2 CSSSI study, safety and adverse events by patient; assay type: in vivo, human
# Protocol: (§1) A randomized (1:1), controlled, evaluator-blinded Phase 2 study comparing 9-[(2,2-dimethyl-propyl amino)-methyl-minocycline (compound 1) and linezolid (Zyvox™) for the treatment of complicated skin and skin structure infections (CSSSI) was conducted. Patients with CSSSI who required initial intravenous (IV) therapy and met inclusion and exclusion criteria were enrolled at 11 centers in the US and were randomized to receive either compound 1 (100 mg Q24 h IV with 200 mg Q24 h oral step-down) or linezolid (600 mg Q12 h IV with 600 mg Q12 h oral step-down).
# (§2) At each of the four structured evaluations, the blinded evaluator assessed the subject, with particular attention to scoring the findings at the primary site of infection and obtaining cultures. Clinical and microbiologic outcomes were determined using these assessments. Primary evaluation criteria was safety and tolerability compared with linezolid. Secondary evaluation criteria was efficacy of compound 1 compared to linezolid, as well as pharmacokinetics of compound 1.
# In addition, the patients in the study were monitored for adverse events (AE). An adverse event is any untoward medical occurrence temporally associated with the use of a medical product in a subject, whether or not the event is considered causally related to the medical product.
# GNR = test: Phase 2 CSSSI study, clinical outcome by organism: GNR; assay type: in vivo, gram-negative rods; conditions: ME population
# Protocol: as §1
# (§3) An infecting pathogen was defined as an isolate derived from the last positive culture taken from the site of infection under study prior to and including day 1.
# Mixed GPC = test: Phase 2 CSSSI study, clinical outcome by organism: Mixed GPC; assay type: in vivo; conditions: ME population
# Protocol: as §1, §3
# B-Strep = test: Phase 2 CSSSI study, clinical outcome by organism: B-Strep; assay type: in vivo, B-streptococci
# Protocol: as §1, §3
# [2] = Phase 2 CSSSI study, safety: ALT level; assay type: in vivo, human
# Protocol: as §1, §2
# [3] = probably or possibly drug-related by blinded evaluator
# [4] = EOT, ALT abnormal at enrollment
# [5] = EOT, ALT within normal limits at enrollment
# [6] = TOC, ALT abnormal at enrollment
# [7] = TOC, ALT within normal limits at enrollment
# [8] = max on treatment, ALT abnormal at enrollment
# [9] = max on treatment, ALT within normal limits at enrollment
smiles,measurement,setting,value
"CN(C)c1cc(CNCC(C)(C)C)c(O)c2c1C[C@H]1C[C@H]3[C@H](N(C)C)C(O)=C(C(N)=O)C(=O)[C@@]3(O)C(O)=C1C2=O [Compound 1, 9-[(2,2-dimethyl-propylamino)-methyl]-minocycline]",tolerability,[1]; 100 mg Q24 h IV with 200 mg Q24 h oral step-down,well tolerated
same,"Adverse events by patient, Musculoskeletal, Drug Related","[1]; human, in vivo",0
same,"Adverse events by patient, Musculoskeletal, Total","[1]; human, in vivo",8
same,GI events leading to discontinuation of therapy,"[1]; human, in vivo",did not result in discontinuation of therapy
same,severity of GI events,[1]; observed almost entirely during oral therapy,mild
same,"Adverse events by patient, Cardiac, Drug Related",[1]; [3],0
same,"Adverse events by patient, Ear, Drug Related",[1]; [3],0
same,"Adverse events by patient, Eye, Drug Related",[1]; [3],0
same,"Adverse events by patient, GI, Drug Related",[1]; [3],12
same,"Adverse events by patient, General, Drug Related",[1]; [3],5
same,"Adverse events by patient, Heme, Drug Related",[1]; [3],0
same,"Adverse events by patient, Infection, Drug Related",[1]; [3],0
same,"Adverse events by patient, Injury, Drug Related",[1]; [3],0
same,"Adverse events by patient, Investigations, Drug Related",[1]; [3],3
same,"Adverse events by patient, Metabolism, Drug Related",[1]; [3],1
same,"Adverse events by patient, Neurologic, Drug Related",[1]; [3],4
same,"Adverse events by patient, Psych, Drug Related",[1]; [3],2
same,"Adverse events by patient, Renal, Drug Related",[1]; [3],1
same,"Adverse events by patient, Reproductive, Drug Related",[1]; [3],0
same,"Adverse events by patient, Respiratory, Drug Related",[1]; [3],0
same,"Adverse events by patient, Skin, Drug Related",[1]; [3],7
same,"Adverse events by patient, Vascular, Drug Related",[1]; [3],0
same,"Adverse events by patient, Cardiac, Total",[1]; safety population,4
same,"Adverse events by patient, Ear, Total",[1]; safety population,0
same,"Adverse events by patient, Eye, Total",[1]; safety population,2
same,"Adverse events by patient, GI, Total",[1]; safety population,21
same,"Adverse events by patient, General, Total",[1]; safety population,11
same,"Adverse events by patient, Heme, Total",[1]; safety population,1
same,"Adverse events by patient, Infection, Total",[1]; safety population,6
same,"Adverse events by patient, Injury, Total",[1]; safety population,1
same,"Adverse events by patient, Investigations, Total",[1]; safety population,7
same,"Adverse events by patient, Metabolism, Total",[1]; safety population,9
same,"Adverse events by patient, Neurologic, Total",[1]; safety population,12
same,"Adverse events by patient, Psych, Total",[1]; safety population,5
same,"Adverse events by patient, Renal, Total",[1]; safety population,2
same,"Adverse events by patient, Reproductive, Total",[1]; safety population,2
same,"Adverse events by patient, Respiratory, Total",[1]; safety population,3
same,"Adverse events by patient, Skin, Total",[1]; safety population,12
same,"Adverse events by patient, Vascular, Total",[1]; safety population,3
same,"Patients with no adverse event (None), %",[1]; safety population,58.6%
same,"Patients with no adverse event (None), number",[1]; safety population,65
same,"Total Patients with 1 or more AE, %",[1]; safety population,41.4%
same,"Total Patients with 1 or more AE, number",[1]; safety population,56
same,Clinical outcome Failure (number),GNR,2
same,Clinical outcome Success (number),GNR,7
same,Clinical outcome Failure (number),Mixed GPC,2
same,Clinical outcome Success (number),Mixed GPC,16
same,Clinical outcome Failure (number),"B-Strep; ME population, B-Strep",0
same,Clinical outcome Success (number),"B-Strep; ME population, B-Strep",6
same,clinical success rate against B. streptococci,B-Strep; as determined in the trials of the Exemplification,100%
same,ALT Increase: >2x ULN and 2x baseline (number),[2]; [4],0
same,ALT NS: >ULN and <2x baseline (%),[2]; [4],84.6%
same,ALT NS: >ULN and <2x baseline (number),[2]; [4],11
same,ALT Within normal limits (%),[2]; [4],15.4%
same,ALT Within normal limits (number),[2]; [4],2
same,ALT 1x-2x (%),[2]; [5],6.5%
same,ALT 1x-2x (number),[2]; [5],6
same,ALT 2x-3x (number),[2]; [5],0
same,ALT >3x (number),[2]; [5],0
same,ALT Within normal limits (%),[2]; [5],93.5%
same,ALT Within normal limits (number),[2]; [5],86
same,ALT Increase: >2x ULN and 2x baseline (%),[2]; [6],(7.7%)
same,ALT Increase: >2x ULN and 2x baseline (number),[2]; [6],1
same,ALT NS: >ULN and <2x baseline (%),[2]; [6],(69.2%)
same,ALT NS: >ULN and <2x baseline (number),[2]; [6],9
same,ALT Within normal limits (%),[2]; [6],(23.1%)
same,ALT Within normal limits (number),[2]; [6],3
same,ALT 1x-2x (%),[2]; [7],(5.6%)
same,ALT 1x-2x (number),[2]; [7],5
same,ALT 2x-3x (number),[2]; [7],0
same,ALT >3x (number),[2]; [7],0
same,ALT Within normal limits (%),[2]; [7],(94.4%)
same,ALT Within normal limits (number),[2]; [7],85
same,ALT Increase: >2x ULN and 2x baseline (%),[2]; [8],(14.3%)
same,ALT Increase: >2x ULN and 2x baseline (number),[2]; [8],2
same,ALT NS: >ULN and <2x baseline (%),[2]; [8],(78.6%)
same,ALT NS: >ULN and <2x baseline (number),[2]; [8],11
same,ALT Within normal limits (%),[2]; [8],(7.1%)
same,ALT Within normal limits (number),[2]; [8],1
same,ALT 1x-2x (%),[2]; [9],(12.4%)
same,ALT 1x-2x (number),[2]; [9],12
same,ALT 2x-3x (number),[2]; [9],0
same,ALT >3x (%),[2]; [9],(1.0%)
same,ALT >3x (number),[2]; [9],1
same,ALT Within normal limits (%),[2]; [9],(86.6%)
same,ALT Within normal limits (number),[2]; [9],84
